Source: paper PMC4986899 (RNA, 2016)

Target: T1, E. coli MetK (Escherichia coli, UniProt P0A817)
T1 sequence (P0A817 2-384): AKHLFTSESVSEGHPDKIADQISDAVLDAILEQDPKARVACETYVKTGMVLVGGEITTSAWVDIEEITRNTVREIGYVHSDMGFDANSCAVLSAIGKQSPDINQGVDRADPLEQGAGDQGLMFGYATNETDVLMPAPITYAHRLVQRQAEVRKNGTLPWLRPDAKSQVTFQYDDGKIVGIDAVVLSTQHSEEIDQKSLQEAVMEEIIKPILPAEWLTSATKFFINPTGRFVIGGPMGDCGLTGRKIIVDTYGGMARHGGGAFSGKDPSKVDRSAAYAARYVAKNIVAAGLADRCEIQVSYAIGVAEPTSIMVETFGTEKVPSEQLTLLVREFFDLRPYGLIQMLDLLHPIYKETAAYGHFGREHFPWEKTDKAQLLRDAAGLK
Experiment: preparative synthesis of […]-methyl S-adenosyl methionine
Type: biochemical
Details: co-substrate 1 mM L-methionine methyl-13C; pH 8.2, 100 mM KCl, 10 mM MgCl2, 30 °C

Nc1ncnc2c1ncn2[C@@H]1O[C@H](COP(=O)(O)OP(=O)(O)OP(=O)(O)O)[C@@H](O)[C@H]1O [ATP]
preparative synthesis of 13C-methyl S-adenosyl methionine: synthesized from methionine and ATP by the E. coli MetK enzyme
